# Data published in PMC5428041, “Dynamic equilibrium on DNA defines transcriptional regulation of a multidrug binding transcriptional repressor, LmrR” (Scientific Reports, 2017).
# Biological target: T1, LmrR (Lactococcus cremoris, UniProt A2RI36)
# T1 construct: gene llmg_0323; C-terminal His6-tagged LmrR (homodimer)
# Assay: ITC ([…] stoichiometry, […] °C); supported by NMR titration
# Format: binding
# T1 sequence (A2RI36 entry or part of it): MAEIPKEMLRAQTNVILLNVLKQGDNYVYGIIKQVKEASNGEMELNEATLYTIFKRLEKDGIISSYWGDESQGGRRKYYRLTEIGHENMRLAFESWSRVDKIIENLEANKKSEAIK
structure (smiles),measurement,value
Cc1cc2nc3c(=O)[nH]c(=O)nc-3n(C[C@H](O)[C@H](O)[C@H](O)CO)c2cc1C [riboflavin],Kd,0.33 µM
